Test results reported in US8067600B2, “Histone deacetylase inhibitors and methods of use thereof” (Georgetown University, priority 2003, dated 2011).
Where two headings read alike, the source gives them in different places.

Tests used:
HDAC [1] = assay: HDAC activity inhibition assay, HeLa nuclear extracts, Fluor de Lys substrate; assay type: biochemical; settings: HeLa nuclear extract, 37° C., 15 min, read-out: 50% HDAC activity inhibition
Procedure: For each test sample the corresponding assay reaction was performed in triplicate. […] For the selected Compounds of the Invention, samples at the following concentrations were prepared and tested: 1 μM, 5 μM, 10 μM, 100 μM and 1 mM.

HDAC [2] = assay: In vitro HDAC inhibitory activity using fluor-Lys as the substrate (BIOMOL); assay type: biochemical; settings: for IC50: read-out: 50% HDAC Activity Inhibition
Procedure: The in vitro HDAC inhibitory activity of these compounds was determined by using fluor-Lys as the substrate (BIOMOL).

[3] = Cytotoxicity in SQ-20B cells (colony formation); settings: human, SQ-20B squamous carcinoma cells
Procedure: (§3) For each concentration indicated, individual T25 flasks were seeded with the following number of SQ-20B cells: for no drug, 10 μM and 50 μM drug concentrations, separate T25 flasks were each seeded with 100 cells; for 100 μM and 300 μM drug concentrations, separate T25 flasks were each seeded with 200 cells each; and for 500 μM and 1 mM drug concentrations, separate T25 flasks were each seeded with 300 cells each. A Levy Hemacytometer (Hausser Scientific) was used to count the cells in stock suspension. Serial dilutions of stock suspension were performed to obtain the proper concentration for cell seeding. To conduct the cytotoxicity study the SQ20B cells were first seeded under the appropriate treatment specifications and allowed to settle for 24 hr in a tissue culture incubator set at 37° C. and 5% CO2. Cells were treated with their corresponding drugs for 24 hr and then washed with three rinses of PBS (10 mL per rinse) and provided with new media. The cells were then further incubated for colony formation and the colonies were stained using a staining solution consisting of: 5 g Crystal Violet, 700 mL methanol and 300 mL dH2O. The flasks were then destained with three rinses in cold water. After the third rinse the stained colonies were counted and the corresponding IC50 for each drug was calculated.

SQ-20B cells [4] = assay: Radiation clonogenic survival assay (radiation sensitization); assay type: cell-based, human; set-up: α / β: unit not given here; settings: drug at IC50 concentration for 24 h, then graded gamma radiation; for α / β: linear quadratic model; for Do in SQ-20B Cells (Gy): single hit multi-target model, Do without sensitizer 2.4 Gy
Procedure: To test the ability of the Compounds of the Invention to sensitize cells to radiation, we used radiation resistant squamous carcinoma cell line, SQ-20B, for initial radiosensitization experiments. SQ-20B is extremely resistant to ionizing radiation (Do=2.4 Gy in the absence of radiation sensitizers). Briefly, logarithmically growing SQ-20B cells were treated with a drug compound at the IC50 concentration (determined using the clonogenic survival assay illustrated in Example 21) for 24 h and then exposed to graded dose of gamma radiation. Clonogenic survivals were determined and fit to the single hit multi-target and the linear quadratic models.
The shape of radiation survival curves are determined by using either the single-hit multitarget model or the linear-quadratic model. The multitarget model is used to describe the radiation sensitivity of cells defined by the terminal slope of the radiation survival curve, which is referred to as Do. The steeper the slope, the smaller is the value of Do and the more radiation sensitive is the cellular response. Alternatively, a less steep slope results in a larger Do and a more resistant radiation response. The linear-quadratic model is also used to describe the radiation sensitivity defined by two components to cell killing by radiation: one is proportional to dose (αD) and the other is proportional to the square of the dose (βD^2). Thus, the dose at which the linear and quadratic components are equal is the ratio α/β.
Shown in Table 4 are the results of selected compounds of the invention in the radiation clonigenic survival assay.

SQ-20B cells [5] = tested on: SQ-20B cells
Procedure: as §3

SQ-20B cells [6] = assay: Cytotoxicity in SQ-20B cells (colony formation); settings: read-out: Cytotoxicity in SQ-20B cells (IC50); 24 hr drug treatment, colony formation
Procedure: as §3

[7] = tested on: squamous cancer cells (SQ-20B); assay: Cytotoxicity following 24 h exposure, SQ-20B (FIG. 2); assay type: cell-based, human; settings: squamous carcinoma cells (SQ-20B)
Procedure: (§1) FIG. 2 depicts graphically the cytotoxicities of various compounds of the invention following 24 h exposure of human breast cancer cells (MCF-7) and squamous cancer cells (SQ-20B).
(§2) To test the biological effects of the compounds of this and the previous Example, cytotoxicities were determined following 24 h exposure of human breast cancer cells (MCF-7) and squamous cancer cells (SQ-20B) to three compounds (4g, 4c and 10a). FIG. 2.

[8] = tested on: human breast cancer cells (MCF-7); assay: Cytotoxicity following 24 h exposure, MCF-7 (FIG. 2); assay type: cell-based; settings: breast carcinoma cells (MCF-7)
Procedure: as §1, §2

Molecule	IC50 (HDAC [1]) [nM]	IC50 (HDAC [2]; fluor-Lys substrate (BIOMOL)) [nM]	α (SQ-20B cells [4])	β (SQ-20B cells [4])	Do in SQ-20B Cells (Gy) (SQ-20B cells [4])	other results
O=C(CS)NCCCCCNC(=O)Nc1ccccc1 [Compound 9, 2-Mercapto-N-[5-(3-phenyl-ureido)-pentyl]-acetamide]	900	–	–	–	–	–
O=C(CS)NCCCCCNC(=O)c1ccccc1 [Compound 4h, N-[5-(2-Mercapto-acetylamino)-pentyl]-benzamide]	–	1100	–	–	–	–
CN(C)c1ccc(CNC(=O)NCCCCCCC(=O)NO)cc1 [Compound 5, 7-[3-(4-dimethylamino-benzyl)-ureido]-heptanoic Acid Hydroyxamide]	1000	–	0.1978	0.02561	1.78	IC50 at 24 h [3]: 50000 nM
CN(C)c1ccc(NC(=O)NCCCCCCC(=O)NO)cc1 [Compound 7, 7-[3-(4-dimethylamino-phenyl)-ureido]-heptanoic Acid Hydroxyamide]	700	–	0.1391	0.03335	1.57	IC50 at 24 h [3]: 10000 nM
O=C(CS)NCCCCNC(=O)c1ccc(-c2ccccc2)cc1 [Compound 4f, Biphenyl-4-carboxylic acid [4-(2-mercapto-acetylamino)-butyl]-amide]	–	13000	–	–	–	–
CC(/C=C/C(=O)NO)=C\[C@@H](C)C(=O)c1ccc(N(C)C)cc1 [TSA, 7-(4-(dimethylamino)phenyl)-n-hydroxy-4,6-dimethyl-7-oxo-2,4-heptadienamide, reference compound]	–	–	0.1260	0.03059	1.65	IC50 at 24 h [3]: 200 nM
O=C(CS)NCCCCCCNC(=O)c1ccccc1 [Compound 4i, N-[6-(2-Mercapto-acetylamino)-hexyl]-benzamide]	–	900	–	–	–	–
O=C(CS)NCCCCCNC(=O)NCc1ccccc1 [Compound 11, N-[5-(3-benzyl-ureido)-pentyl]-2-mercapto-acetamide]	1600	–	–	–	–	–
O=C(CCCCCNC(=O)NC12CC3CC(CC(C3)C1)C2)NO [Compound 8, 6-(3-Adamantan-1-yl-ureido)-hexanoic Acid Hydroxyamide]	800	–	0.2378	0.02282	1.78	IC50 at 24 h [3]: 50000 nM
O=C(CS)NCCCCCNC(=O)c1cccc2cccnc12 [Compound 4m, Quinoline-8-carboxylic acid [5-(2-mercapto-acetylamino)-pentyl]-amide]	–	400	–	–	–	–
O=C(CS)NCCCCCCNC(=O)Nc1ccccc1 [Compound 10, 2-Mercapto-N-[6-(3-phenyl-ureido)-hexyl]-acetamide]	900	–	0.1135	0.01558	2.54	IC50 at 24 h [3]: 50000 nM
CN(C)c1ccc(C(=O)NCc2ccc(CNC(=O)CS)cc2)cc1 [Compound 4k, 4-Dimethylamino-N-{4-[(2-mercapto-acetylamino)-methyl]-benzyl}-benzamide]	–	200	–	–	–	in vitro HDAC inhibitory activity (in words) (HDAC [2]; fluor-Lys substrate (BIOMOL)): comparable HDAC inhibitory activity
CN(C)c1ccc(C(=O)NCCCCCCNC(=O)CS)cc1 [Compound 22]	800	–	–	–	–	–
O=C(CS)NCCCNC(=O)c1ccc(-c2ccccc2)cc1 [Compound 4e, Biphenyl-4-carboxylic acid [3-(2-mercapto-acetylamino)-propyl]-amide]	–	800	–	–	–	–
4-[3-(4-Dimethylamino-benzyl)-ureido]-N-hydroxy-butyramide [Compound 2]	800	–	0.1681	0.03301	1.62	IC50 (SQ-20B cells [5]): 50000 nM
O=C(CS)NCCCCCCNC(=O)c1ccccc1 [Compound 21]	1600	–	–	–	–	–
5-[3-(4-dimethylamino-benzyl)-ureido]-pentanoic Acid Hydroxyamide [Compound 3]	800	–	0.2420	0.02486	1.72	IC50 (SQ-20B cells [6]): 25000 nM
CN(C)c1ccc(CNC(=O)NCCCCCCCC(=O)NO)cc1 [Compound 6, 8-[3-(4-dimethylamino-benzyl)-ureido]-octanoic Acid Hydroxyamide]	700	–	0.2846	0.01761	1.94	IC50 at 24 h [3]: 50000 nM
O=C(CCCCCCC(=O)Nc1ccccc1)NO [SAHA, suberoylanilide hydroxamic acid, reference compound]	–	–	0.01197	0.03152	1.88	–
O=C(CS)NCCCCCNC(=O)c1cnc2ccccc2c1 [Compound 4l, Quinoline-3-carboxylic acid [5-(2-mercapto-acetylamino)-pentyl]-amide]	–	250	–	–	–	–
O=C(CS)NCCCCCNC(=O)c1ccc(-c2ccccc2)cc1 [Compound 4g, Biphenyl-4-carboxylic acid [5-(2-mercapto-acetylamino)-pentyl]-amide]	–	550	–	–	–	–
CN(C)c1ccc(C(=O)NCCCCNC(=O)CS)cc1 [Compound 4b, 4-Dimethylamino-N-[4-(2-mercapto-acetylamino)-butyl]-benzamide]	–	4700	–	–	–	–
O=C(CS)NCCCCCNC(=O)c1ccc(-c2ccccc2)cc1 [Compound 23]	750	–	–	–	–	–
CN(C)c1ccc(C(=O)NCCCCCCNC(=O)CS)cc1 [Compound 4d, 4-Dimethylamino-N-[6-(2-mercapto-acetylamino)-hexyl]-benzamide]	–	450	–	–	–	–
CN(C)c1ccc(C(=O)NCCCNC(=O)CS)cc1 [Compound 4a, 4-Dimethylamino-N-[3-(2-mercapto-acetylamino)-propyl]-benzamide]	–	800	–	–	–	–
O=C(CS)NCCCCCCNC(=O)CS [Compound 4j, 2-Mercapto-N-[6-(2-mercapto-acetylamino)-hexyl]-acetamide]	–	10000	–	–	–	–
CN(C)c1ccc(C(=O)NCCCCCNC(=O)CS)cc1 [Compound 4c, 4-Dimethylamino-N-[5-(2-mercapto-acetylamino)-pentyl]-benzamide]	–	–	–	–	–	IC50 (HDAC [2]): 200 nM; cytotoxicities (in words) [7]: dose-dependent cytotoxicities; cytotoxicities (in words) [8]: dose-dependent cytotoxicities
CN(C)c1ccc(C(=O)NCCCCCNC(=O)CS)cc1 [Compound 24]	800	–	–	–	–	–
O=C(CS)NCCCCCNC(=O)c1ccccc1 [Compound 25]	1000	–	–	–	–	–
